In patent publication US20200046703A1, “COMPOSITIONS AND METHODS FOR TREATMENT OF THE SIDE-EFFECTS ASSOCIATED WITH ADMINISTRATION OF THERAPEUTIC AGENTS” (ASYMMETRIC THERAPEUTICS, LLC, priority 2018, published 2020):
Values after ≈ are worked out from the molar mass of the structure shown.

Experiments:
hand-foot syndrome = conditions: allopurinol at 3%, topical; cited from earlier work
[1] = system: mucositis toxicity of 5-FU; conditions: maximally-tolerated oral dose of 800 mg/day; 5 μM of 5-FU; cited from earlier work
confluent HPEK cells = assay: Confluent HPEK cell viability with/without 5-FU; assay type: cell-based, human; conditions: for relative cell viability (AVG): 120 hours; for Relative Protection against 5-FU toxicity / Relative Growth in the presence of 5-FU: HPEK confluent cells; for Relative Protection against 5-FU toxicity: fraction of viability loss prevented; for Relative Growth in the presence of 5-FU: viability with 5-FU divided by viability without 5-FU; for effect on cell viability in the presence of 5-FU: concentration range of 0.3 mM to 3.0 mM
Procedure: Oxypurinol and allopurinol concentrations of 0.3 mM, 1.0 mM, and 3.0 mM, which are ten times higher than those used in the first set of experiments, were tested. An adenine concentration of 0.3 mM, which was the higher concentration used in the first set of experiments, was tested. The relative viability of the cells was determined after 120 hours.

confluent NHEK cells = assay: Confluent NHEK cell viability with/without 5-FU; assay type: cell-based, human; conditions: for effect on cell viability in the presence of 5-FU: 0.1 mM to 3.0 mM; for relative cell viability (AVG): 120 hours; for Relative Protection against 5-FU toxicity: fraction of viability loss prevented; for effect on cell viability in the absence of 5-FU: range of 0.1 mM to 3.0 mM
Procedure: In yet another set of experiments, the results of which are shown in Table 4, confluent NHEK cells were exposed to the clinically-relevant dose of 10 μM of 5-FU and different concentrations of sodium hydroxide, oxypurinol, or allopurinol using standard tissue culture methods and incubated at 37° C. Sodium hydroxide concentrations of 1 mM, 2 mM, 3 mM, and 4 mM were tested. Oxypurinol and allopurinol concentrations of 0.1 mM, 0.3 mM, 1.0 mM, and 3.0 mM were tested, both in the presence and in the absence of 10 μM of 5-FU. The relative viability of the cells was determined after 120 hours. The sodium hydroxide trials were only performed to serve as a control.

proliferating HGEP cells = assay: Proliferating HGEP cell viability with/without 5-FU; assay type: cell-based, human; conditions: for relative cell viability (AVG): 120 hours
Procedure: (§1) In one set of experiments, the results of which are shown in Table 1, proliferating HGEP cells, commonly used to assess oral mucosal toxicity, were exposed to the clinically-relevant dose of 10 μM of 5-FU and different concentrations of oxypurinol, either alone or with different concentrations of adenine or uracil, using standard tissue culture methods and incubated at 37° C. Oxypurinol concentrations of 0.03 mM, 0.1 mM, and 0.3 mM were tested. Adenine and uracil concentrations of 0.1 mM and 0.3 mM were tested. The relative viability of the cells was determined after 120 hours.

marrow cells = conditions: about a 30-fold excess; in patients; cited from earlier work
Solubility of oxypurinol = assay type: physicochemical; conditions: in vitro; in the protective formulation; read-out: maximum in vitro solubility / upper limit of solubility
proliferating HPEK cells = assay: Proliferating HPEK cell viability with/without 5-FU; assay type: cell-based, human; conditions: for relative cell viability (AVG): 120 hours; for Relative Protection against 5-FU toxicity / Relative Growth in the presence of 5-FU: HPEK proliferating cells; for Relative Protection against 5-FU toxicity: fraction of viability loss prevented; for Relative Growth in the presence of 5-FU: viability with 5-FU divided by viability without 5-FU
Procedure: as §1, with “In another” for “In one”, “Table 2,” for “Table 1,”, “proliferating HPEK” for “proliferating HGEP”, “assess skin tissue” for “assess oral mucosal”

[2] = NHEK, 0.1 mM, viability with 5-FU divided by viability without 5-FU
[3] = NHEK, 0.3 mM, viability with 5-FU divided by viability without 5-FU
[4] = NHEK, 1.0 mM, viability with 5-FU divided by viability without 5-FU
[5] = NHEK, 3.0 mM, viability with 5-FU divided by viability without 5-FU
[6] = concentrations of 0.1 mM and 0.3 mM
[7] = 0.3 mM, with 5-FU 10 μM, listed as oxypurinol
[8] = 1.0 mM, with 5-FU 10 μM, listed as oxypurinol
[9] = 3.0 mM, with 5-FU 10 μM, listed as oxypurinol

## Oc1ncnc2[nH]ncc12 [Allopurinol, allopurinol]
hand-foot syndrome
  therapeutic benefit against HFS: did not achieve an adequate therapeutic benefit
[1]
  prevention of mucositis toxicity of 5-FU: does not prevent the mucositis toxicity
Confluent HPEK cells; 0.3 mM, no 5-FU
  relative cell viability (AVG): 1.1870
Confluent HPEK cells; 0.3 mM, with 5-FU 10 μM
  relative cell viability (AVG): 0.7303
Confluent HPEK cells; 1.0 mM, no 5-FU
  relative cell viability (AVG): 1.2411
Confluent HPEK cells; 1.0 mM, with 5-FU 10 μM
  relative cell viability (AVG): 0.7748
Confluent HPEK cells; 3.0 mM, no 5-FU
  relative cell viability (AVG): 1.0410
Confluent HPEK cells; 3.0 mM, with 5-FU 10 μM
  relative cell viability (AVG): 0.7528
Confluent HPEK cells; 0.3 mM
  Relative Protection against 5-FU toxicity: 0.2464
  Relative Growth in the presence of 5-FU: 0.6152
Confluent HPEK cells; 1.0 mM
  Relative Protection against 5-FU toxicity: 0.3709
  Relative Growth in the presence of 5-FU: 0.6243
Confluent HPEK cells; 3.0 mM
  Relative Protection against 5-FU toxicity: 0.3092
  Relative Growth in the presence of 5-FU: 0.7231
Confluent HPEK cells
  effect on cell viability in the presence of 5-FU: protective effect
Confluent NHEK cells
  effect on cell viability in the presence of 5-FU: protective effect for confluent NHEK cells that was generally less than oxypurinol
  effect on cell viability in the absence of 5-FU: small positive effect
Confluent NHEK cells; 0.1 mM, no 5-FU
  relative cell viability (AVG): 1.0426
Confluent NHEK cells; 0.1 mM, with 5-FU 10 μM
  relative cell viability (AVG): 0.6303
Confluent NHEK cells; 0.1 mM, with 5-FU 10 μM, listed as allopurinol
  relative cell viability (AVG): 0.63
Confluent NHEK cells; 0.3 mM, no 5-FU
  relative cell viability (AVG): 1.1285
Confluent NHEK cells; 0.3 mM, with 5-FU 10 μM
  relative cell viability (AVG): 0.5100
Confluent NHEK cells; 0.3 mM, with 5-FU 10 μM, listed as allopurinol
  relative cell viability (AVG): 0.51
Confluent NHEK cells; 1.0 mM, no 5-FU
  relative cell viability (AVG): 1.1137
Confluent NHEK cells; 1.0 mM, with 5-FU 10 μM
  relative cell viability (AVG): 0.4370
Confluent NHEK cells; 1.0 mM, with 5-FU 10 μM, listed as allopurinol
  relative cell viability (AVG): 0.44
Confluent NHEK cells; 3.0 mM, NHEK, FIG. 2
  Relative Growth in the presence of 5-FU: less than 41%
Confluent NHEK cells; 3.0 mM, no 5-FU
  relative cell viability (AVG): 1.0640
Confluent NHEK cells; 3.0 mM, with 5-FU 10 μM
  relative cell viability (AVG): 0.4348
Confluent NHEK cells; 3.0 mM, with 5-FU 10 μM, listed as allopurinol
  relative cell viability (AVG): 0.44
Confluent NHEK cells; NHEK, 0.1 mM
  Relative Protection against 5-FU toxicity: 0.3664
Confluent NHEK cells; [2]
  Relative Growth in the presence of 5-FU: 0.6045
Confluent NHEK cells; NHEK, 0.3 mM
  Relative Protection against 5-FU toxicity: 0.1603
Confluent NHEK cells; [3]
  Relative Growth in the presence of 5-FU: 0.4519
Confluent NHEK cells; NHEK, 1.0 mM
  Relative Protection against 5-FU toxicity: 0.0352
Confluent NHEK cells; [4]
  Relative Growth in the presence of 5-FU: 0.3924
Confluent NHEK cells; NHEK, 3.0 mM
  Relative Protection against 5-FU toxicity: 0.0314
Confluent NHEK cells; [5]
  Relative Growth in the presence of 5-FU: 0.4086

## O=c1nc2[nH][nH]cc-2c(=O)[nH]1 [Oxypurinol, oxypurinol]
Proliferating HGEP cells; 0.03 mM, no 5-FU
  relative cell viability (AVG): 0.8792
Proliferating HGEP cells; 0.03 mM, with 5-FU 10 μM
  relative cell viability (AVG): 0.6441
Proliferating HGEP cells; 0.1 mM, no 5-FU
  relative cell viability (AVG): 0.7134
Proliferating HGEP cells; 0.1 mM, with 5-FU 10 μM
  relative cell viability (AVG): 0.7540
Proliferating HGEP cells; 0.3 mM, no 5-FU
  relative cell viability (AVG): 0.6367
Proliferating HGEP cells; 0.3 mM, with 5-FU 10 μM
  relative cell viability (AVG): 0.8925
Proliferating HGEP cells; 0.03 to 0.3 mM
  effect on cell viability in the absence of 5-FU: negative effect
Proliferating HGEP cells; [6]
  effect on cell viability in the presence of 5-FU: protective effect
Marrow cells
  protection of marrow cells from 5-FU toxicity: completely protect marrow cells from 5-FU toxicity
Solubility of oxypurinol
  solubility: ~3000 µM (≈ 456 µg/mL)
Confluent HPEK cells; 0.3 mM, no 5-FU
  relative cell viability (AVG): 1.0183
Confluent HPEK cells; 0.3 mM, with 5-FU 10 μM
  relative cell viability (AVG): 0.7226
Confluent HPEK cells; [7]
  relative cell viability (AVG): 0.72
Confluent HPEK cells; 1.0 mM, no 5-FU
  relative cell viability (AVG): 1.0706
Confluent HPEK cells; 1.0 mM, no 5-FU, listed as oxypurinol
  relative cell viability (AVG): 1.07
Confluent HPEK cells; 1.0 mM, with 5-FU 10 μM
  relative cell viability (AVG): 0.7509
Confluent HPEK cells; [8]
  relative cell viability (AVG): 0.75
Confluent HPEK cells; 3.0 mM, no 5-FU
  relative cell viability (AVG): 0.8351
Confluent HPEK cells; 3.0 mM, no 5-FU, listed as oxypurinol
  relative cell viability (AVG): 0.835
Confluent HPEK cells; 3.0 mM, with 5-FU 10 μM
  relative cell viability (AVG): 0.8147
Confluent HPEK cells; [9]
  relative cell viability (AVG): 0.81
Confluent HPEK cells; HPEK cells, FIG. 1, across the range of tested concentrations
  protection from 5-FU toxicity compared with allopurinol: significantly better
Confluent HPEK cells; 0.3 mM
  Relative Protection against 5-FU toxicity: 0.2249
  Relative Growth in the presence of 5-FU: 0.7096
Confluent HPEK cells; 1.0 mM
  Relative Protection against 5-FU toxicity: 0.3039
  Relative Growth in the presence of 5-FU: 0.7013
Confluent HPEK cells; 3.0 mM
  Relative Protection against 5-FU toxicity: 0.4822
  Relative Growth in the presence of 5-FU: 0.9755
Confluent HPEK cells; HPEK, up to about 3 mM
  oxypurinol toxicity: no evidence of oxypurinol toxicity
Confluent HPEK cells
  effect on cell viability in the presence of 5-FU: protective effect
Confluent HPEK cells; oxypurinol at 3 mM, 5-FU 10 μM
  preservation of growth, with versus without 5-FU: 97.5%
Proliferating HPEK cells; 0.03 mM, no 5-FU
  relative cell viability (AVG): 1.0763
Proliferating HPEK cells; 0.03 mM, with 5-FU 10 μM
  relative cell viability (AVG): 0.6903
Proliferating HPEK cells; 0.1 mM, no 5-FU
  relative cell viability (AVG): 0.7961
Proliferating HPEK cells; 0.1 mM, with 5-FU 10 μM
  relative cell viability (AVG): 0.7961
Proliferating HPEK cells; 0.3 mM, no 5-FU
  relative cell viability (AVG): 1.0201
Proliferating HPEK cells; 0.3 mM, with 5-FU 10 μM
  relative cell viability (AVG): 0.8635
Proliferating HPEK cells; 0.03 mM
  Relative Protection against 5-FU toxicity: 0.1133
  Relative Growth in the presence of 5-FU: 0.6414
Proliferating HPEK cells; 0.1 mM
  Relative Protection against 5-FU toxicity: 0.4163
  Relative Growth in the presence of 5-FU: 1.0000
Proliferating HPEK cells; 0.3 mM
  Relative Protection against 5-FU toxicity: 0.6092
  Relative Growth in the presence of 5-FU: 0.8465
Proliferating HPEK cells; [6]
  effect on cell viability in the presence of 5-FU: protective effect
Proliferating HPEK cells; range of 0.03 mM to 0.3 mM
  effect on cell viability in the absence of 5-FU: minimal effect
Confluent NHEK cells
  effect on cell viability in the presence of 5-FU: protective effect
  effect on cell viability in the absence of 5-FU: small negative effect
Confluent NHEK cells; 0.1 mM, no 5-FU
  relative cell viability (AVG): 0.8884
Confluent NHEK cells; 0.1 mM, with 5-FU 10 μM
  relative cell viability (AVG): 0.5818
Confluent NHEK cells; 0.1 mM, with 5-FU 10 μM, listed as oxypurinol
  relative cell viability (AVG): 0.58
Confluent NHEK cells; 0.3 mM, no 5-FU
  relative cell viability (AVG): 0.9059
Confluent NHEK cells; 0.3 mM, with 5-FU 10 μM
  relative cell viability (AVG): 0.5881
Confluent NHEK cells; [7]
  relative cell viability (AVG): 0.59
Confluent NHEK cells; 1.0 mM, no 5-FU
  relative cell viability (AVG): 0.9580
Confluent NHEK cells; 1.0 mM, with 5-FU 10 μM
  relative cell viability (AVG): 0.5965
Confluent NHEK cells; [8]
  relative cell viability (AVG): 0.60
Confluent NHEK cells; 3.0 mM, NHEK, FIG. 2
  Relative Growth in the presence of 5-FU: over 73%
Confluent NHEK cells; 3.0 mM, no 5-FU
  relative cell viability (AVG): 0.9784
Confluent NHEK cells; 3.0 mM, with 5-FU 10 μM
  relative cell viability (AVG): 0.7165
Confluent NHEK cells; [9]
  relative cell viability (AVG): 0.72
Confluent NHEK cells; NHEK cells, FIG. 2, across the range of tested concentrations
  protection from 5-FU toxicity compared with allopurinol: significantly better
Confluent NHEK cells; NHEK, 0.1 mM
  Relative Protection against 5-FU toxicity: 0.2834
Confluent NHEK cells; [2]
  Relative Growth in the presence of 5-FU: 0.6549
Confluent NHEK cells; NHEK, 0.3 mM
  Relative Protection against 5-FU toxicity: 0.2941
Confluent NHEK cells; [3]
  Relative Growth in the presence of 5-FU: 0.6492
Confluent NHEK cells; NHEK, 1.0 mM
  Relative Protection against 5-FU toxicity: 0.3085
Confluent NHEK cells; [4]
  Relative Growth in the presence of 5-FU: 0.6226
Confluent NHEK cells; NHEK, 3.0 mM
  Relative Protection against 5-FU toxicity: 0.5142
Confluent NHEK cells; [5]
  Relative Growth in the presence of 5-FU: 0.7323
Confluent NHEK cells; NHEK, up to about 3 mM
  oxypurinol toxicity: no evidence of oxypurinol toxicity
